Measured values: ChEMBL document CHEMBL1124877, “Synthesis and biological evaluation of 4-fluoro-, 7-fluoro-, and 4,7-difluoro-5,6-dihydroxytryptamines” (J Med Chem, 1990)

Tests used:
Assay type in all cases: functional, cell-based
Details in all cases: Mus musculus, N2a
[1] = Effect on the uptake of [3H]5-HT into differentiated N-2a cells.
[2] = Inhibition of [3H]- Thymidine incorporation into the DNA of differentiated neuroblastoma clone N-2a cells.
[3] = Inhibition of [3H]- Thymidine incorporation into the DNA of differentiated neuroblastoma clone N-2a cells

With `CN1CC(=O)NC1=N.NCCc1c[nH]c2c(F)c(O)c(O)c(F)c12` the IC50 [1] was 1360 nM and the IC50 [2] was 135 µM.
In the case of `CN1CC(=O)NC1=N.NCCc1c[nH]c2cc(O)c(O)c(F)c12`, the IC50 [1] is reported as 550 nM and the IC50 [2] is reported as 117 µM.
`CN1CC(=O)NC1=N.NCCc1c[nH]c2c(F)c(O)c(O)cc12` showed an IC50 [1] of 760 nM and an IC50 [2] of 125 µM.
`NCCc1c[nH]c2cc(O)c(O)cc12` showed an IC50 [1] of 17800 nM and an IC50 [3] of 92 µM.
